The values that follow come from patent EP0235773A1, “Improved pesticide formulations” (Shell Agrar GmbH & Co. KG, priority 1986, dated 1987).

Structures can show the parent of a compound that is named as a salt.

For series [1] the following is noted: cited from earlier work.
Series [2] can be described thus: Approximate solubility of solutes in butyrolactone (BLO). Conditions: solvent BLO; approximately 25-30°C. The format is physicochemical. As to the method:
In formulating the solutions of chlorflurenol and solvent, it was necessary to agitate the solution in order to dissolve the chlorflurenol in the BLO, M-Pyrol, or BLO/M-PYROL.
From tests conducted, the following approximate solubilities at temperatures of approximately 25-30°C. were determined.
Technical dicamba acid - 86.9% acid equivalent Technical sodium salt of dicamba acid - 76% acid equivalent Technical chlorflurenol methyl ester - 95-98% total methal esters

With `COC(=O)C1(O)c2ccccc2-c2ccc(Cl)cc21` (stereo not drawn) [Technical chlorflurenol methy ester, chlorflurenol methyl ester], the water solubility in series [1] is 0.0018 grams/100 grams water. In series [2], the “Solubility for acid Equivalent Concentration” value is listed as “approximately 25%”.

Take `COc1c(Cl)ccc(Cl)c1C(=O)O` [Technical sodium salt of dicamba]: in series [2], the “Solubility for acid Equivalent Concentration” value is “Less than 1%”.
